According to article PMC12469831, “The Odorant-Binding Proteins AspiOBP1 and AspiOBP2 in Aleurocanthus spiniferus Are Involved in the Perception of Host Volatiles” (International Journal of Molecular Sciences, 2025):
Structures can show the parent of a compound that is named as a salt.

Molecular target: T1, AspiOBP2
T1 construct: signal peptide removed; pET-30a(+) BamHI/EcoRI, E. coli BL21; His-tag kept; about 27 kDa predicted; clone primers encode mature start ETSTVDS and C-terminus PPPKP
Experiment: fluorescent probe titration, Scatchard
Format: binding, Aleurocanthus spiniferus
Conditions: 50 mmol/L Tris-HCl pH 7.4, 2 µmol/L protein, excitation 295 nm, His-tag kept

Kd: 2260 ± 470 nM
SMILES: O=S(=O)(O)c1cccc2c(-c3ccc(Nc4ccccc4)c4c(S(=O)(=O)O)cccc34)ccc(Nc3ccccc3)c12 [bis-ANS, 4,4′-Dianilino-1,1′-binaphthyl-5,5′-disulfonic acid, dipotassium salt]
